Patent publication US11976072B2, “Diacylglycerol kinase modulating compounds” (priority 2021, dated 2024)

Experiments:
human DGKα = human DGKα (Homo sapiens, UniProt P23743); test: DGKα Biochemical Activity Assay (ADP-Glo); settings: recombinant DGKα 1 nM, 100 μM ATP, 18:1 DAG/POPS/octylglucoside micelles, 1 hour at 25° C.; geometric mean; read-out: HTBS DGKa 1X ATP KM IC50;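 also: luminescent detection of ADP produced as DGKα phosphorylates DAG to phosphatidic acid, IC50 from four-parameter nonlinear curve fit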
Chain of human DGKα (P23743 whole entry): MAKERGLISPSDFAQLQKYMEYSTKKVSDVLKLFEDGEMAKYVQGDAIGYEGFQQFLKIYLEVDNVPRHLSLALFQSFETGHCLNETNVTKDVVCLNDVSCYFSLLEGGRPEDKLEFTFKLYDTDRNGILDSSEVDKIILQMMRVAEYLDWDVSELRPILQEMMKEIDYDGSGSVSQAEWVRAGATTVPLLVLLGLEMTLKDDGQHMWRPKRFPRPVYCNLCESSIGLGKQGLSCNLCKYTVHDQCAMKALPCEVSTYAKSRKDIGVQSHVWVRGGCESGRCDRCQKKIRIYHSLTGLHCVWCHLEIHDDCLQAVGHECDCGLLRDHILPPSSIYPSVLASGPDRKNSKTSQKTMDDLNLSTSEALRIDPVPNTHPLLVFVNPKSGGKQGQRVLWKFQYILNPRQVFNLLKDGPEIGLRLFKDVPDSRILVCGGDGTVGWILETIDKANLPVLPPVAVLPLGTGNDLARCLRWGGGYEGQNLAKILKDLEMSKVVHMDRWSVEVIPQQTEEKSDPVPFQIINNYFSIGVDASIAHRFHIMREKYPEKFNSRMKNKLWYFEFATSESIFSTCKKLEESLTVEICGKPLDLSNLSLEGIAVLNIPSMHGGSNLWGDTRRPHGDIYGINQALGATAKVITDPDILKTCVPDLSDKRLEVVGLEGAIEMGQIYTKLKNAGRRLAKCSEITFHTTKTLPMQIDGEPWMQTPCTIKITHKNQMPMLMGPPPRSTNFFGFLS

[1] = test system: Jurkat NFκB-luciferase cells; test: Jurkat NFκB-Luciferase Assay; type: cell-based; settings: Homo sapiens; Jurkat NFκB-luciferase cells activated with anti-CD3 antibody (OKT3), 2.5 hrs at 37° C.; geometric mean; read-out: DGK NFKb Luciferase EC50
Method in brief: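 Jurkat NFκB-luciferase reporter cells at 1 million cells/ml in RPMI with 10% FBS were added to antibody-coated, compound-containing wells. Luciferase activity read by One-Glo Ex luminescence 7 minutes after reagent addition.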

Q: With `Cc1nnc2nc(N3CCCc4c(C#CC5CC5)cccc43)c3c(F)c(F)ccc3n12` [Example 131, 5-[5-(2-cyclopropylethynyl)-3,4-dihydro-2H-quinolin-1-yl]-6,7-difluoro-1-methyl-[1,2,4]triazolo[4,3-a]quinazoline] as the molecule, how does the IC50 (human DGKα) read?
A: 8.68 nM

Q: And the EC50 [1]?
A: 2.14 nM

Q: `Cc1nnc2nc(N3CCOCc4c3ccnc4C#CC3(C)CC3)c3cc(F)ccc3n12` [Example 132, 1-(7-fluoro-1-methyl-[1,2,4]triazolo[4,3-a]quinazolin-5-yl)-6-((1-methylcyclopropyl)ethynyl)-1,2,3,5-tetrahydropyrido[4,3-e][1,4]oxazepine] was tested. Which IC50 (human DGKα) did it give?
A: 3.1 nM

Q: And the EC50 [1]?
A: 6.64 nM

Q: For `Cc1nnc2nc(N3CCOCc4c3ccnc4C#CC3(C(C)(F)F)CC3)c3cc(F)ccc3n12` [Example 133, 6-((1-(1,1-difluoroethyl)cyclopropyl)ethynyl)-1-(7-fluoro-1-methyl-[1,2,4]triazolo[4,3-a]quinazolin-5-yl)-1,2,3,5-tetrahydropyrido[4,3-e][1,4]oxazepine], which IC50 (human DGKα) is on record?
A: 15.1 nM

Q: What about the EC50 [1] of the same molecule?
A: 5.69 nM

Q: With `Cc1nnc2nc(N3CCOCc4c3ccnc4C#CC(C)(C)C(F)(F)F)c3cc(F)ccc3n12` [Example 134, 1-(7-fluoro-1-methyl-[1,2,4]triazolo[4,3-a]quinazolin-5-yl)-6-(4,4,4-trifluoro-3,3-dimethylbut-1-yn-1-yl)-1,2,3,5-tetrahydropyrido[4,3-e][1,4]oxazepane] as the molecule, how does the IC50 (human DGKα) read?
A: 9.88 nM

Q: What about the EC50 [1] of the same molecule?
A: 8.21 nM

Q: Which results are given for `Cc1nnc2nc(N3CCOCc4c3ccnc4C#CC3(C(F)F)CC3)c3c(F)cccc3n12` [Example 135, 6-((1-(difluoromethyl)cyclopropyl)ethynyl)-1-(6-fluoro-1-methyl-[1,2,4]triazolo[4,3-a]quinazolin-5-yl)-1,2,3,5-tetrahydropyrido[4,3-e][1,4]oxazepine]?
A: IC50 (human DGKα): 5.49 nM; EC50 [1]: 6.06 nM

Q: Which IC50 (human DGKα) does the source give for `Cc1nnc2nc(N3CCOCc4c3ccnc4C#CC(C)(C)C(F)F)c3c(F)cccc3n12` [Example 136, 6-(4,4-difluoro-3,3-dimethylbut-1-yn-1-yl)-1-(6-fluoro-1-methyl-[1,2,4]triazolo[4,3-a]quinazolin-5-yl)-1,2,3,5-tetrahydropyrido[4,3-e][1,4]oxazepine] here?
A: 11.1 nM

Q: What about the EC50 [1] of the same molecule?
A: 13.9 nM

Q: What does the source list for `Cc1nnc2nc(N3CCOCc4c3ccnc4C#CC(C)(C)NC(=O)C3(C(F)(F)F)CC3)c3c(F)cccc3n12` [Example 137, N-(4-(1-(6-fluoro-1-methyl-[1,2,4]triazolo[4,3-a]quinazolin-5-yl)-1,2,3,5-tetrahydropyrido[4,3-e][1,4]oxazepin-6-yl)-2-methylbut-3-yn-2-yl)-1-(trifluoromethyl)cyclopropane-1-carboxamide]?
A: IC50 (human DGKα): 17.7 nM; EC50 [1]: 106 nM

Q: What does the source list for `Cc1nnc2nc(N3CCOCc4c(C#CC(C)(C)NC(=O)c5cn(C)nc5C(F)(F)F)cccc43)c3c(F)cccc3n12` [Example 138, N-(4-(1-(6-fluoro-1-methyl-[1,2,4]triazolo[4,3-a]quinazolin-5-yl)-1,2,3,5-tetrahydrobenzo[e][1,4]oxazepin-6-yl)-2-methylbut-3-yn-2-yl)-1-methyl-3-(trifluoromethyl)-1H-pyrazole-4-carboxamide]?
A: IC50 (human DGKα): 28.9 nM; EC50 [1]: 43.3 nM

Q: For `Cc1nnc2nc(N3CCOCc4c(C#CC(C)(C)NC(=O)c5cn(C)nc5C(F)F)cccc43)c3c(F)cccc3n12` [Example 139, 3-(difluoromethyl)-N-[3-[1-(6-fluoro-1-methyl-[1,2,4]triazolo[4,3-a]quinazolin-5-yl)-3,5-dihydro-2H-4,1-benzoxazepin-6-yl]-1,1-dimethyl-prop-2-ynyl]-1-methyl-pyrazole-4-carboxamide], which IC50 (human DGKα) is on record?
A: 72.6 nM

Q: What about the EC50 [1] of the same molecule?
A: 41.3 nM

Q: What does the source list for `Cc1nnc2nc(N3CCOCc4c3ccnc4C#CC(C)(C)C(F)(F)F)c3c(F)cccc3n12` [Example 140, 1-(6-fluoro-1-methyl-[1,2,4]triazolo[4,3-a]quinazolin-5-yl)-6-(4,4,4-trifluoro-3,3-dimethylbut-1-yn-1-yl)-1,2,3,5-tetrahydropyrido[4,3-e][1,4]oxazepine]?
A: IC50 (human DGKα): 4.52 nM; EC50 [1]: 4.36 nM

Q: How did the IC50 (human DGKα) turn out when `Cc1nnc2nc(N3CCOCc4c3ccnc4C#CC3(C)CC3)c3c(F)cccc3n12` [Example 141, 1-(6-fluoro-1-methyl-[1,2,4]triazolo[4,3-a]quinazolin-5-yl)-6-((1-methylcyclopropyl)ethynyl)-1,2,3,5-tetrahydropyrido[4,3-e][1,4]oxazepine] was run?
A: 4.76 nM

Q: And the EC50 [1]?
A: 5.11 nM

Q: `Cc1nnc2nc(N3CCOCc4c3ccnc4C#CC3(C(C)(F)F)CC3)c3c(F)cccc3n12` [Example 142, 6-((1-(1,1-difluoroethyl)cyclopropyl)ethynyl)-1-(6-fluoro-1-methyl-[1,2,4]triazolo[4,3-a]quinazolin-5-yl)-1,2,3,5-tetrahydropyrido[4,3-e][1,4]oxazepine] was tested. Which IC50 (human DGKα) did it give?
A: 16.4 nM

Q: And the EC50 [1]?
A: 5.03 nM

Q: Which results are given for `Cc1nnc2nc(N3CCOCc4c3ccnc4C#CC3(C(F)(F)F)CC3)c3c(F)cccc3n12` [Example 143, 1-(6-fluoro-1-methyl-[1,2,4]triazolo[4,3-a]quinazolin-5-yl)-6-((1-(trifluoromethyl)cyclopropyl)ethynyl)-1,2,3,5-tetrahydropyrido[4,3-e][1,4]oxazepine]?
A: IC50 (human DGKα): 3.85 nM; EC50 [1]: 3.61 nM

Q: Which results are given for `Cc1nnc2nc(N3CCOCc4c(C#CC(C)(C)NC(=O)C(C)(C)C(F)(F)F)cccc43)c3c(F)cccc3n12` [Example 144, 3,3,3-trifluoro-N-(4-(1-(6-fluoro-1-methyl-[1,2,4]triazolo[4,3-a]quinazolin-5-yl)-1,2,3,5-tetrahydrobenzo[e][1,4]oxazepin-6-yl)-2-methylbut-3-yn-2-yl)-2,2-dimethylpropanamide]?
A: IC50 (human DGKα): 4.73 nM; EC50 [1]: 11.1 nM

Q: Which results are given for `Cc1nnc2nc(N3CCOCc4c(C#CC5(NC(=O)C6(C(F)(F)F)CC6)CC5)cccc43)c3c(F)cccc3n12` [Example 145, N-(1-((1-(6-fluoro-1-methyl-[1,2,4]triazolo[4,3-a]quinazolin-5-yl)-1,2,3,5-tetrahydrobenzo[e][1,4]oxazepin-6-yl)ethynyl)cyclopropyl)-1-(trifluoromethyl) cyclopropane-1-carboxamide]?
A: IC50 (human DGKα): 6.87 nM; EC50 [1]: 1.21 nM

Q: For `Cc1nnc2nc(N3CCOCc4c(C#CC(C)(C)NC(=O)OC(C)C(F)(F)F)cccc43)c3c(F)cccc3n12` (centres unmarked) [Example 146, 1,1,1-trifluoropropan-2-yl (4-(1-(6-fluoro-1-methyl-[1,2,4]triazolo[4,3-a]quinazolin-5-yl)-1,2,3,5-tetrahydrobenzo[e][1,4]oxazepin-6-yl)-2-methylbut-3-yn-2-yl)carbamate], which IC50 (human DGKα) is on record?
A: 3.54 nM

Q: And the EC50 [1]?
A: 20.5 nM

Q: With `Cc1nnc2nc(N3CCOCc4c(C#CC(C)(C)NC(=O)C5(C(F)(F)F)CC5)cccc43)c3c(F)cccc3n12` [Example 147, N-(4-(1-(6-fluoro-1-methyl-[1,2,4]triazolo[4,3-a]quinazolin-5-yl)-1,2,3,5-tetrahydrobenzo[e][1,4]oxazepin-6-yl)-2-methylbut-3-yn-2-yl)-1-(trifluoromethyl) cyclopropane-1-carboxamide] as the molecule, how does the IC50 (human DGKα) read?
A: 3.16 nM

Q: What about the EC50 [1] of the same molecule?
A: 7.74 nM

Q: With `Cc1nnc2nc(N3CCOCc4c(C#CC(C)(C)NC(=O)OC(C)(C)C)cccc43)c3c(F)cccc3n12` [Example 148, tert-butyl (4-(1-(6-fluoro-1-methyl-[1,2,4]triazolo[4,3-a]quinazolin-5-yl)-1,2,3,5-tetrahydrobenzo[e][1,4]oxazepin-6-yl)-2-methylbut-3-yn-2-yl)carbamate] as the molecule, how does the IC50 (human DGKα) read?
A: 4.36 nM

Q: What about the EC50 [1] of the same molecule?
A: 6.03 nM

Q: Which results are given for `Cc1nnc2nc(N3CCCc4c(C#CC(C)(C)NC(=O)OC(C)C(F)(F)F)cccc43)c3c(F)cccc3n12` (centres unmarked) [Example 149, 1,1,1-trifluoropropan-2-yl (4-(1-(6-fluoro-1-methyl-[1,2,4]triazolo[4,3-a]quinazolin-5-yl)-1,2,3,4-tetrahydroquinolin-5-yl)-2-methylbut-3-yn-2-yl)carbamate]?
A: IC50 (human DGKα): 14.1 nM; EC50 [1]: 5.38 nM

Q: For `Cc1nnc2nc(N3CCCc4c(C#CC(C)(C)NC(=O)OC(C)(C)C)cccc43)c3c(F)cccc3n12` [Example 150, Tert-Butyl (4-(1-(6-fluoro-1-methyl-[1,2,4]triazolo[4,3-a]quinazolin-5-yl)-1,2,3,4-tetrahydroquinolin-5-yl)-2-methylbut-3-yn-2-yl)carbamate], which IC50 (human DGKα) is on record?
A: 11.5 nM

Q: And the EC50 [1]?
A: 2.48 nM

Q: What does the source list for `Cc1nnc2nc(N3CCCc4c(C#CC(C)(C)NC(=O)C5(C(F)(F)F)CC5)cccc43)c3c(F)cccc3n12` [Example 151, N-(4-(1-(6-fluoro-1-methyl-[1,2,4]triazolo[4,3-a]quinazolin-5-yl)-1,2,3,4-tetrahydroquinolin-5-yl)-2-methylbut-3-yn-2-yl)-1-(trifluoromethyl)cyclopropane-1-carboxamide]?
A: IC50 (human DGKα): 2.41 nM; EC50 [1]: 3.59 nM

Q: For `Cc1nnc2nc(N3CCCc4c(C#CC(C)(C)O)cc(F)cc43)c3c(F)cccc3n12` [Example 152, 4-(7-fluoro-1-(6-fluoro-1-methyl-[1,2,4]triazolo[4,3-a]quinazolin-5-yl)-1,2,3,4-tetrahydroquinolin-5-yl)-2-methylbut-3-yn-2-ol], which IC50 (human DGKα) is on record?
A: 34.6 nM

Q: What about the EC50 [1] of the same molecule?
A: 53.9 nM

Q: What does the source list for `Cc1nnc2nc(N3CCOCc4c(N5CC6CC(C5)C6(F)F)cccc43)c3c(F)cccc3n12` [Example 153]?
A: IC50 (human DGKα): 82.8 nM; EC50 [1]: 3.98 nM

Q: With `Cc1nnc2nc(N3CCOCc4c(N5CCC(C)(C#N)CC5)cccc43)c3c(F)cccc3n12` [Example 154, 1-[1-(6-fluoro-1-methyl-[1,2,4]triazolo[4,3-a]quinazolin-5-yl)-3,5-dihydro-2H-4,1-benzoxazepin-6-yl]-4-methyl-piperidine-4-carbonitrile] as the molecule, how does the IC50 (human DGKα) read?
A: 7.42 nM

Q: And the EC50 [1]?
A: 6.33 nM

Q: `Cc1nnc2nc(N3CCCc4c(N5CCC(C)(C#N)CC5)cccc43)c3c(F)cccc3n12` [Example 155, 1-[1-(6-fluoro-1-methyl-[1,2,4]triazolo[4,3-a]quinazolin-5-yl)-3,4-dihydro-2H-quinolin-5-yl]-4-methyl-piperidine-4-carbonitrile] was tested. Which IC50 (human DGKα) did it give?
A: 25.6 nM

Q: And the EC50 [1]?
A: 5.13 nM
